Experimental data taken from patent publication US5639726A, “Peptide mediated enhancement of thrombolysis methods and compositions” (The Regents of the University of Michigan, priority 1994, dated 1997).
Ends that are not written are not given here.

Columns and labels:
fibrin clot = assay: In vitro clot lysis assay, fluorescein-labeled fibrin clots with recombinant PAI-1; format: biochemical, human
Experimental: Clot lysis assays were performed as previously described (Fay et al., 1994). A mixture of glu-plasminogen (0.2 μM), fluorescein-labeled fibrinogen (3 μM), PAI-1 (0.7 μM) was prepared. t-PA (20 nM) was added 30 minutes after clot formation and clot lysis was allowed to occur for 60 minutes at 37° C., after which the tubes were centrifuged (16,000×3 min), and 80 μL of the supernatant was removed and diluted into 1.2 mL of 10 mM Tris-HCl, 140 mM NaCl, pH 7.5. The fluorescence of this dilution was measured and % clot lysis was calculated, as previously described (Fay et al., 1994). The capacity of P1-P14 peptide to accelerate fibrinolysis in vitro, both in the absence and presence of platelets was also evaluated. Fluorescein-labeled fibrin clots were formed in the presence of recombinant PAI-1 (0.7 μM) and either P1-P14 peptide (55 μM), an irrelevant 14 amino acid peptide (55 μM), or no peptide. After 30 min at 37° C., fibrinolysis was initiated by the addition of t-PA (20 nM), and % clot lysis was determined 60 min later. Addition of P1-P14 peptide increased clot lysis from 28±7% to 90±6% (mean±SEM of triplicate experiments), whereas the control peptide had no effect on clot lysis either in the presence or absence of PAI-1 (FIG. 6a). In similar experiments, platelet-rich clots were formed by clotting fluorescein-labeled fibrinogen in the presence of 2.5×10^8 platelets/mL, and fibrinolysis was initiated by the addition of t-PA (75 pM).

PAI-1 [1] = biological target: T1, PAI-1 (Homo sapiens, UniProt P05121); assay: Native gel electrophoresis of PAI incubated with peptide; format: binding
T1 construct: made in house; host or cells: E. coli (vector pET3a)
T1 sequence (P05121 24-402): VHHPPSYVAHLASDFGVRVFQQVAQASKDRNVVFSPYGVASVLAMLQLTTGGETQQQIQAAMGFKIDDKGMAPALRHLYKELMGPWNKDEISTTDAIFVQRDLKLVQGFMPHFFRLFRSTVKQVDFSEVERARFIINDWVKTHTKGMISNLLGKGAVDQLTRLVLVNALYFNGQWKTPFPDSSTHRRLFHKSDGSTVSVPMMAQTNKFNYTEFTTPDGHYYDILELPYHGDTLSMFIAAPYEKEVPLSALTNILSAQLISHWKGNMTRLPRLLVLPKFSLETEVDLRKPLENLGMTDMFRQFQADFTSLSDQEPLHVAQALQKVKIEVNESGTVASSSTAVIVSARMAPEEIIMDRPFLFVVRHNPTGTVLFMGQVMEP
Experimental: SDS-polyacrylamide gel electrophoresis (SDS-PAGE) under nonreducing conditions was carried out according to the method of Laemmli (Laemmli, 1970) on 10% gels. Native gel electrophoresis with 5% gels was carried out by omitting SDS and boiling from Laemmli's method. All gels were stained with Coomassie brilliant blue. Gels of PAI-peptide samples were scanned with an LKB Ultroscan XL Laser Densitometer to determine the relative amounts of peptide-annealed and latent PAI.
Four of the five peptides have a net negative charge due to glutamic acid residues and the free carboxy terminus (FIG. 1). The wtPAI 8-mer has a net -1 charge (the carboxy terminus). The V→E PAI 8-mer (SEQ ID NO:3) and consensus 8-mer (SEQ ID NO:4) each have a -2 charge (the glutamic acid residue and the carboxyl group). […] The PAI 14-mer (SEQ ID NO:1) is uncharged since it contains no glutamic acid and the arginine and carboxyl groups neutralize each other. Because of the negative charges of 4 of the peptides, native gels of PAI annealed to these peptides should show a band which migrates more quickly than the band representative of free active PAI. Similarly, if one of these peptides is incubated with PAI but fails to form a strong interaction with PAI, native gels should show a band which migrates identically to the free PAI.

PAI-1 [2] = biological target: T1, PAI-1; assay: Thermal denaturation of peptide treated PAI-1; details: FIG. 4
Text: Circular dichroism (CD) spectra analysis (Strandberg et al., 1991) indicated similar secondary structural components for the PAI-1 mutants, as well as active and latent wild-type PAI-1.
(Lawrence et al., 1994c). […] As expected, active PAI-1 was much less thermally stable than latent PAI-1 or elastase cleaved PAI-1 (FIG. 4). […] This is precisely the behavior expected for a serpin with a peptide intercalated into β-sheet A (Carrell et al., 1991; Schulze et al., 1990; Bjork et al., 1992). […] If the 14 residue peptide were intercalated into β-sheet A, then the added length of the peptide bound to sheet A would be expected to increase the stability not decrease it.
Upon completion of peptide annealing, the incubation solution contained a mixture of annealed PAI-peptide, latent PAI, and excess peptide. For circular dichroism (CD) spectra, melting curves, and mass spectroscopy determinations, the excess peptide was removed. This was done by loading the mixture on a heparin-sepharose column which had been equilibrated with 0.05M sodium phosphate, 0.15M NaCl, 1 mM EDTA, 0.01% TWEEN-80, pH 6.6. Washing the column with this buffer removed the excess peptide. The PAI-peptide and latent PAI were eluted together with 0.05M Sodium phosphate, 1M NaCl, 1 mM EDTA, 0.01% TWEEN-80, pH 6.6. […] The absorbance at 280 nm was used to determine the final protein concentration. […]

PAI-1 [3] = biological target: T1, PAI-1; assay: Kinetics of peptide annealing: residual PAI inhibitory activity assayed with β-trypsin and S-2222; format: biochemical; details: peptide 5.5 mM; 25° C.
Experimental: PAI-1 (6.4 μM) was incubated with increasing concentrations of each peptide at 23° C. and the (T1/2) of PAI-1 inactivation was determined by measuring the PAI-1 activity remaining over time.
Peptides were dissolved in 1 mM HCl+1% TWEEN-80 (the three PAI peptides) (SEQ ID NOS: 1-3), or in 0.1M HEPES (SEQ ID NOS: 4-5), 0.1M NaCl, 0.1% PEG-8000, pH […] (the two consensus peptides). Peptides were annealed to active PAI by incubation of active PAI in 0.1M HEPES, 0.1M NaCl, 0.1% PEG-8000, pH 7.4 with a peptide in its solvent. Ten percent of the final incubation mixture consisted of the peptide solvent. Incubation was carried out at 25° C. until no PAI inhibitory activity remained as determined by kinetics rate assays with trypsin, described below. The final concentration of PAI in the incubation mixture was either 0.9 μM (for kinetics assays) or 6.3 μM (for gels and purification). The peptide concentrations varied greatly due to the individual solubilities and rates of insertion of each peptide. These concentrations are given in the legends of the appropriate figures.
During annealing of 0.9 μM PAI with a peptide, the residual inhibitory activity of PAI was measured after varying incubation times by assaying an aliquot of the sample with β-trypsin. Trypsin (1 nM final concentration) was added to the chromogenic substrate S-2222 (950 μM) with 27 nM PAI sample. The absorbance at 405 nm was measured continuously for at least 12.5 min in a Shimadzu UV-265 UV-visible spectrophotometer. The pseudo-first order rate constant of trypsin is an indirect measure of the amount of PAI that has lost inhibitory activity due either to annealing or to becoming latent. The rate constant of controls containing the peptide solvent but no peptide was subtracted from that of the experimental assays in order to correct for the effect of the simultaneous change of PAI from the active to the latent state.

Ac-TVASSSTAVIVSAR [SEQ ID NO: 1, Thr-Val-Ala-Ser-Ser-Ser-Thr-Ala-Val-Ile-Val-Ser-Ala-Arg]
dependence of the degree of clot lysis on peptide concentration (fibrin clot): proportional
inhibition of PAI-1 function in the presence of fibrin (fibrin clot): nearly completely inhibited
effect on clot lysis in the absence of PAI-1 (fibrin clot; absence of PAI-1): no augmentation of fibrinolysis
clot lysis at 60 minutes (fibrin clot; presence of PAI-1 (0.7 μM), peptide 55 μM, t-PA 20 nM, 28±7% without peptide): 90±6%
electrophoretic mobility of active PAI incubated with peptide, native gel (PAI-1 [1]): a band at the same position as free active PAI
thermal stability of peptide treated PAI-1 (PAI-1 [2]): very similar to latent PAI-1
k (PAI-1 [3]): .014 M⁻¹ s⁻¹
